Laboratory results reported in patent US8993566B2, “Quinoline compound composing 1,2,4-triazine-dione and use thereof” (Wuhan Shengyun Biopharma Co., Ltd., priority 2012, dated 2015).
Values after ≈ are worked out from the molar mass of the structure shown.

What was measured:
[1] = tested on: human nonsmall-cell lung cancer cell H460; assay: In vitro anti-tumor cell activity (MTT), H460; type: cell-based; conditions: H460 cells, MTT, 72 h, Bliss method; for IC50: Homo sapiens, NCI-H460, read-out: H460 IC50
Method: (§1) The digested cell solution was poured into a centrifuge tube, to which a culture media was added to stop the digestion. The centrifuge tube was centrifuged at 800 r/min for 10 min, the supernatant was removed gently and then 5 mL of the culture media was added. The cells were pipetted and mixed homogeneously. 10 μL cell suspension was taken into a cell counting plate for counting, wherein the cell concentration was adjusted to 10^4 cells/well. To each well of a 96-well plate, except for A1 well as blank control, was added 100 μL of the cell suspension. The 96-well plate was placed in an incubator and cultivated for 24 h. […] The 96-well plate was placed in an incubator and cultivated for 72 h. (3) The culture media containing the compounds in the 96-well plate was removed, and the cells were washed with phosphate buffered solution (PBS) twice. To each well was added 100 μL MTT (tetrazole) (0.5 mg/mL), after placing the plate in an incubator to incubate for 4 h, the MTT solution was removed and 100 μL dimethyl sulfoxide was added. The reaction product of survival cells with MTT, i.e. formazan, was dissolved completely by oscillation on a magnetic oscillator, and then placed into a microplate reader to measure the results, and the IC50 values of compounds could be deduced by Bliss method.

[2] = tested on: human gastric cancer cell MKN-45; assay: In vitro anti-tumor cell activity (MTT), MKN-45; type: cell-based; conditions: MKN-45 cells, MTT, 72 h, Bliss method; for IC50: Homo sapiens, read-out: MKN-45 IC50
Method: as §1

[3] = tested on: human hepatoma carcinoma cell line SMMC-7721; assay: In vitro anti-tumor cell activity (MTT), SMMC-7721; type: cell-based; conditions: SMMC-7721 cells, MTT, 72 h, Bliss method; for IC50: Homo sapiens, read-out: SMMC-7721 IC50
Method: as §1

[4] = tested on: human colon cancer cell HT-29; assay: In vitro anti-tumor cell activity (MTT), HT-29; type: cell-based; conditions: HT-29 cells, MTT, 72 h, Bliss method; for IC50: Homo sapiens, read-out: HT-29 IC50
Method: as §1

[5] = target: T1, c-Met kinase (His-tagged recombinant human Met (amino acids 974-end)) (Homo sapiens, UniProt P08581); assay: c-Met Enzyme Activity Inhibition Assay (ELISA); type: biochemical; conditions: 50 pM c-Met, 5 μM ATP, room temperature 20 min; for IC50: read-out: IC50 for inhibiting c-Met kinase (converted)
T1 construct: His-tagged recombinant human Met (amino acids 974-end); His
Method: c-Met Enzyme Activity Inhibition Assay
The assay for the determination of c-Met kinase activity is based on an enzyme linked immunosorbant assay (ELISA). A compound of Formula I, 50 pM c-Met (His-tagged recombinant human Met (amino acids 974-end), expressed by baculovirus), and 5 μM ATP in an assay buffer (25 mM MOPS, pH 7.4, 5 mM MgCl2, […], 100 μM sodium orthovanadate, 0.01% Triton X-100, 1 mM DTT, final DMSO concentration 1% (v/v)) were incubated on a plate coated with 0.25 mg/mL POT at room temperature for 20 min. The reaction mixture was removed by washing and the phosphorylated polymer substrate was detected with 0.2 μg/mL phosphotyrosine specific monoclonal antibody (PY20) conjugated to horseradish peroxidase (HRP). After the addition of 1M phosphoric acid to stop the development, the chromogenic substrate (TMB) color was quantitated by spectrophotometry at 450 nm.

T1 sequence (P08581 956-1390): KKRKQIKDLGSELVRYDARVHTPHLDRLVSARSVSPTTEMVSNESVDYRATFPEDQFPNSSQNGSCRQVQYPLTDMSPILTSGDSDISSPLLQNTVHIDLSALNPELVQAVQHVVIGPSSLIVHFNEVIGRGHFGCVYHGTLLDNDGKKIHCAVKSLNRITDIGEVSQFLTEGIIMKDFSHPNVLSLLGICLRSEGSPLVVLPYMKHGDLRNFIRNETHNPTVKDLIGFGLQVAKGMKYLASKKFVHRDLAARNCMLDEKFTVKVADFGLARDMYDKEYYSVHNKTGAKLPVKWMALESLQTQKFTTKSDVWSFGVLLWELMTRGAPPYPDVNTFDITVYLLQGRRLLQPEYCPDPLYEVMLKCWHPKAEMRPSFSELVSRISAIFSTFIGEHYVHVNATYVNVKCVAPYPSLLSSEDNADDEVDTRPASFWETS

COc1cc2c(Oc3ccc(NC(=O)c4nn(-c5ccccc5)c(=O)n(C)c4=O)cc3F)ccnc2cc1OCCCN1CCOCC1 [Example 3, N-[3-fluoro-4-[6-methoxy-7-[3-(4-morpholinyl)propyloxy]quinolin-4-oxy]phenyl]-2-phenyl-4-methyl-3,5-dioxo-2,3,4,5-tetrahydro-1,2,4-triazine-6-carboxamide] showed an IC50 [1] of 0.17 µg/mL (≈ 0.259 µM), an IC50 [2] of 0.059 µg/mL (≈ 0.0898 µM) and an IC50 [3] of 0.1 µg/mL (≈ 0.152 µM). It also gave an IC50 [4] of 0.14 µg/mL (≈ 0.213 µM) and an IC50 [5] of 88.3 nM.

“N-[3-fluoro-4-[6-methoxy-7-[3-(1-piperidinyl)propyloxy]quinolin-4-oxy]phenyl]-2-(3-trifluoromethylphenyl)-4-methyl-3,5-dicarbonyl-2,3,4,5-tetrahydro-1,2,4-triazine-6-carboxamide [Example 22]” was tested, and the “H460 IC50” value [1] was 0.26 µg/mL, the “MKN-45 IC50” value [2] was 0.006 µg/mL and the “SMMC-7721 IC50” value [3] was 0.18 µg/mL. For the same compound, the “HT-29 IC50” value [4] was 0.12 µg/mL and the “IC50 for inhibiting c-Met kinase” value [5] was 0.57 µg/mL.

Work on COc1cc2c(Oc3ccc(NC(=O)c4nn(-c5ccc(Cl)cc5)c(=O)n(C)c4=O)cc3F)ccnc2cc1OCCCN1CCOCC1 [Example 27, N-[3-fluoro-4-[6-methoxy-7-[3-(4-morpholinyl)propyloxy]quinolin-4-oxy]phenyl]-2-(4-chlorophenyl)-4-methyl-3,5-dioxo-2,3,4,5-tetrahydro-1,2,4-triazine-6-carboxamide] yielded an IC50 [1] of 0.23 µg/mL (≈ 0.333 µM), an IC50 [2] of 0.0053 µg/mL (≈ 0.00767 µM) and an IC50 [3] of 0.58 µg/mL (≈ 0.839 µM). For the same compound, the IC50 [4] was 0.18 µg/mL (≈ 0.26 µM) and the IC50 [5] was 59.3 nM.

In the case of “N-[3-fluoro-4-[6-methoxy-7-[3-(4-methyl-1-piperidinyl)propyloxy]quinolin-4-oxy]phenyl]-2-phenyl-4-methyl-3,5-dioxo-2,3,4,5-tetrahydro-1,2,4-triazine-6-carboxamide [Example 4]”, the “H460 IC50” value [1] is reported as 0.087 µg/mL, the “MKN-45 IC50” value [2] is reported as 0.053 µg/mL and the “SMMC-7721 IC50” value [3] is reported as 0.071 µg/mL. The “HT-29 IC50” value [4] was 0.13 µg/mL and the “IC50 for inhibiting c-Met kinase” value [5] was 0.63 µg/mL.

In the case of COc1cc2c(Oc3ccc(NC(=O)c4nn(-c5ccccc5)c(=O)n(C)c4=O)cc3F)ccnc2cc1OCCCN1CCN(C)CC1 [Example 5, N-[3-fluoro-4-[6-methoxy-7-[3-(4-methyl-1-piperazinyl)propyloxy]oxy]phenyl)-2-phenyl-4-methyl-3,5-dioxo-2,3,4,5-tetrahydro-1,2,4-triazine-6-carboxamide], the “H460 IC50” value [1] is reported as 0.094 µg/mL, the “MKN-45 IC50” value [2] is reported as 0.12 µg/mL and the “SMMC-7721 IC50” value [3] is reported as 0.15 µg/mL. The “HT-29 IC50” value [4] was 0.12 µg/mL and the “IC50 for inhibiting c-Met kinase” value [5] was 0.28 µg/mL.

In the case of “N-[3-fluoro-4-[6-methoxy-7-[3-(1-pyrrolidyl)propyloxy]quinolin-4-oxy]phenyl]-2-(3-trifluoromethylphenyl)-4-methyl-3,5-dicarbonyl-2,3,4,5-tetrahydro-1,2,4-triazine-6-carboxamide [Example 21]”, the “H460 IC50” value [1] is reported as 0.24 µg/mL, the “MKN-45 IC50” value [2] is reported as 0.0002 µg/mL and the “SMMC-7721 IC50” value [3] is reported as 0.32 µg/mL. The “HT-29 IC50” value [4] was 0.13 µg/mL and the “IC50 for inhibiting c-Met kinase” value [5] was 0.13 µg/mL.

“N-[3-fluoro-4-[7-methoxy-6-[3-(4-morpholinyl)propyloxy]quinolin-4-oxy]phenyl]-2-(3-trifluoromethylphenyl)-4-butyl-3,5-dicarbonyl-2,3,4,5-tetrahydro-1,2,4-triazine-6-carboxamide [Example 34]” was tested, and the “H460 IC50” value [1] was 0.028 µg/mL, the “MKN-45 IC50” value [2] was 0.013 µg/mL and the “SMMC-7721 IC50” value [3] was 0.18 µg/mL. The “HT-29 IC50” value [4] was 0.11 µg/mL and the “IC50 for inhibiting c-Met kinase” value [5] was 0.017 µg/mL.

“N-[3-fluoro-4-[7-methoxy-6-[3-(1-pyrrolidyl)propyloxy]quinolin-4-oxy]phenyl]-2-(2-trifluoromethylphenyl)-4-butyl-3,5-dicarbonyl-2,3,4,5-tetrahydro-1,2,4-triazine-6-carboxamide [Example 35]” was tested, and the “H460 IC50” value [1] was 0.12 µg/mL, the “MKN-45 IC50” value [2] was 0.005 µg/mL and the “SMMC-7721 IC50” value [3] was 0.31 µg/mL. The “HT-29 IC50” value [4] was 0.079 µg/mL and the “IC50 for inhibiting c-Met kinase” value [5] was 0.03 µg/mL.

COc1cc2c(Oc3ccc(NC(=O)c4nn(-c5ccc(F)c(F)c5)c(=O)n(C)c4=O)cc3F)ccnc2cc1OCCCN1CCC(C)CC1 [Example 19, N-[3-fluoro-4-[6-methoxy-7-[3-(4-methylpiperidin-1-yl)propyloxy]quinolin-4-oxy]phenyl]-2-(3,4-difluorophenyl)-4-methyl-3,5-dioxo-2,3,4,5-tetrahydro-1,2,4-triazine-6-carboxamide] showed an IC50 [1] of 1.1 µg/mL (≈ 1.56 µM), an IC50 [2] of 0.23 µg/mL (≈ 0.326 µM) and an IC50 [3] of 0.74 µg/mL (≈ 1.05 µM). The IC50 [4] was 0.24 µg/mL (≈ 0.341 µM) and the IC50 [5] was 766 nM.

For “N-[3-fluoro-4-[6-methoxy-7-[3-(1-piperidinyl)propyloxy]quinolin]-4-oxy]phenyl]-2-(2,4-difluorophenyl)-4-benzyl-3,5-dicarbonyl-2,3,4,5-tetrahydro-1,2,4-triazine-6-carboxamide [Example 44]”, the “H460 IC50” value [1] was 0.99 µg/mL, the “MKN-45 IC50” value [2] was 0.13 µg/mL and the “SMMC-7721 IC50” value [3] was 2.5 µg/mL. For the same compound, the “HT-29 IC50” value [4] was 0.57 µg/mL and the “IC50 for inhibiting c-Met kinase” value [5] was 6.1 µg/mL.

“N-[3-fluoro-4-[6-methoxy-7-[3-(4-methyl-1-piperidinyl)propyloxy]quinolin-4-oxy]phenyl]-2-(4-methylphenyl)-4-methyl-3,5-dicarbonyl-2,3,4,5-tetrahydro-1,2,4-triazine-6-carboxamide [Example 14]” was tested, and the “H460 IC50” value [1] was 0.15 µg/mL, the “MKN-45 IC50” value [2] was 2.1 µg/mL and the “SMMC-7721 IC50” value [3] was 0.88 µg/mL. For the same compound, the “HT-29 IC50” value [4] was 0.11 µg/mL and the “IC50 for inhibiting c-Met kinase” value [5] was 0.088 µg/mL.

COc1cc2c(Oc3ccc(NC(=O)c4nn(-c5ccc(Cl)cc5)c(=O)n(C)c4=O)cc3F)ccnc2cc1OCCCN1CCCCC1 [Example 26, N-[3-fluoro-4-[6-methoxy-7-[3-(1-piperidinyl)propyloxy]quinolin-4-oxy]phenyl]-2-(4-chlorophenyl)-4-methyl-3,5-dioxa-2,3,4,5-tetrahydro-1,2,4-triazine-6-carboxamide;] was tested, and the “H460 IC50” value [1] was 0.15 µg/mL, the “MKN-45 IC50” value [2] was 0.011 µg/mL and the “SMMC-7721 IC50” value [3] was 0.33 µg/mL. The “HT-29 IC50” value [4] was 0.08 µg/mL and the “IC50 for inhibiting c-Met kinase” value [5] was 0.71 µg/mL.

In the case of “N-[3-fluoro-4-[6-methoxy-7-[3-(4-methyl-1-piperazinyl)propyloxy]quinolin]-4-oxy]phenyl]-2-(2-fluorophenyl)-4-allyl-3,5-dicarbonyl-2,3,4,5-tetrahydro-1,2,4-triazine-6-carboxamide [Example 41]”, the “H460 IC50” value [1] is reported as 0.8 µg/mL, the “MKN-45 IC50” value [2] is reported as 0.06 µg/mL and the “SMMC-7721 IC50” value [3] is reported as 1.4 µg/mL. For the same compound, the “HT-29 IC50” value [4] was 1.1 µg/mL and the “IC50 for inhibiting c-Met kinase” value [5] was 2.7 µg/mL.

For “N-[3-fluoro-4-[7-methoxy-6-[3-(4-methyl-1-piperidinyl)propyloxy]quinolin-4-oxy]phenyl]-2-(2-trifluoromethylphenyl)-4-allyl-3,5-dioxo-2,3,4,5-tetrahydro-1,2,4-triazine-6-carboxamide [Example 36]”, the “H460 IC50” value [1] was 1.7 µg/mL, the “MKN-45 IC50” value [2] was 0.21 µg/mL and the “SMMC-7721 IC50” value [3] was 2.4 µg/mL. For the same compound, the “HT-29 IC50” value [4] was 0.43 µg/mL and the “IC50 for inhibiting c-Met kinase” value [5] was 1.1 µg/mL.

In the case of “N-[3-fluoro-4-[6-methoxy-7-[3-(1-pyrrolidyl)propyloxy]quinolin]-4-oxy]phenyl]-2-(4-fluorophenyl)-4-allyl-3,5-dicarbonyl-2,3,4,5-tetrahydro-1,2,4-triazine-6-carboxamide [Example 42]”, the “H460 IC50” value [1] is reported as 1.1 µg/mL, the “MKN-45 IC50” value [2] is reported as 0.11 µg/mL and the “SMMC-7721 IC50” value [3] is reported as 0.92 µg/mL. For the same compound, the “HT-29 IC50” value [4] was 0.77 µg/mL and the “IC50 for inhibiting c-Met kinase” value [5] was 1.63 µg/mL.
